Several values for one entry are separate records, joined by “and”; a condition that tells them apart may be missing. Identical values can stand only once. Like-named read-outs stand apart in the source and are kept apart here.
How the values were obtained:
[1] = 8-h oral plasma pharmacokinetics and tissue distribution, female wild-type, Cyp3a−/− and Cyp3aXAV mice; assay type: in vivo; conditions: 10 mg/kg oral; for Tmax: median (range); for Tmax / SIC (% of dose) / Fold change AUC0–8h / Fold change SIC (% of dose) / Fold increase Cbrain / Fold increase Cliver / Fold increase ratio (brain-to-plasma) / Fold increase ratio (liver-to-plasma) / Kp at 8 h / concentration at 8 h / half-life / Cmax / AUC(0-t): 8 h; for Fold change AUC0–8h / Fold change SIC (% of dose) / Fold increase Cbrain / Fold increase Cliver / Fold increase ratio (brain-to-plasma) / Fold increase ratio (liver-to-plasma): vs wild-type; for Kp at 8 h / concentration at 8 h / half-life / Cmax / AUC(0-t): female, po; for half-life: elimination half-life; for AUC(0-t): read-out: AUC0–8h
From the text: (§1) Mice with similar average ages (and body weights) were randomly allocated in experimental groups as far as possible. Mice were maintained in a temperature-controlled and specific pathogen-free environment with a 12-h light and 12-h dark cycle and they received a standard diet (Transbreed, SDS Diets, Technilab-BMI, Someren, The Netherlands) and acidified water ad libitum. […] Given the objective main readout (repotrectinib plasma and tissue concentrations as measured by LC-MS/MS), no blinding method was applied.
Repotrectinib was dissolved in dimethyl sulfoxide (DMSO) at a concentration of 50 mg/mL. This stock solution was first diluted 3-fold with ethanol/polysorbate 80 (1/1; v/v), followed by further dilution with a 10 mM hydrochloric acid solution, yielding a dosing solution of 1 mg/mL, freshly prepared on the day of experiment. Final concentrations of the solvents in the administration solution were: 2%, 2%, 2%, and 94% (all v/v) for DMSO, ethanol, polysorbate 80, and 10 mM hydrochloric acid solution, respectively.
(§2) To minimize variation in absorption upon oral administration, mice were fasted for 2–3 h before repotrectinib (10 mg/kg body weight) was administered by gavage into the stomach at 10 µL/g body weight, with a blunt-ended needle. Tail vein serial blood samples were collected at 0.125, 0.25, 0.5, 1, 2 and 4 h using heparinized capillary tubes (Sarstedt, Nümbrecht, Germany) for the 8-h experiments. For the 4- and 2-h experiments, blood samplings were performed from the tail vein with the same schedule, but terminated at 2 and 1 h, respectively. Eight, four, or two hours after oral administration, mice were deeply anesthetized with 2–3% isoflurane, followed by cardiac puncture to collect blood in Eppendorf tubes containing heparin as an anticoagulant. Brain, liver, spleen, kidney, lung, small intestine, and testis were rapidly collected after sacrificing the mice by cervical dislocation. The small intestinal contents (SIC) were separated from small intestinal tissue (SI), which was flushed and rinsed with cold saline to remove any residual feces. Brain, liver, spleen, kidney, lung, SI, SIC, and testis were homogenized with 1, 3, 1, 2, 1, 3, 2, and 1 mL of 2% BSA (w/v), respectively. Plasma fraction was isolated from blood by centrifugation at 9000× g for 6 min at 4 °C. All samples were stored at −30 °C until analysis.
A sensitive and specific liquid chromatography-tandem mass spectrometry method using protein precipitation pre-treatment was adopted to quantify the concentration of repotrectinib in DMEM medium, plasma samples and tissue homogenates.
A non-compartmental model using the PKSolver add-in program for Microsoft Excel was adopted to calculate the pharmacokinetic parameters of repotrectinib. Oral availability was assessed by the plasma area under the curve (AUC), calculated using repotrectinib plasma concentration-time curves with the linear trapezoidal rule without extrapolating the infinity. Statistical testing was performed in Graphpad Prism7 (Graphpad Software, La Jolla, CA, USA). All data are presented as geometric means ± SD. Heteroscedastic data were log-transformed before applying statistical analysis. When differences between two groups were compared, the two-sided unpaired Student’s t test was used. One-way analysis of variance (ANOVA) was applied when multiple groups were compared, and the Bonferroni post hoc correction was used to accommodate multiple testing. Differences were considered statistically significant when P < 0.05.

[2] = Toxicity signs observed in mice after oral repotrectinib; assay type: in vivo; conditions: 10 mg/kg oral
From the text: as §1, §2

[3] = FVB, mouse, plasma, 10 mg/kg, female Cyp3aXAV mice
[4] = FVB, mouse, plasma, 10 mg/kg, female Cyp3a−/− mice
[5] = FVB, mouse, plasma, 10 mg/kg, female wild-type mice

In the case of `C[C@H]1CNC(=O)c2cnn3ccc(nc23)N[C@H](C)c2cc(F)ccc2O1` [repotrectinib], the Tmax ([1]; FVB, mouse, plasma, female wild-type mice, read-out: Tmax) is reported as 30 min, the “plasma AUC0–8h, fold decrease” value ([1]; female Cyp3aXAV mice compared to Cyp3a−/− mice) is reported as 2.0 fold and the “SIC (% of dose)” value ([1]; female Cyp3aXAV mice) is reported as 1.68 ± 0.63 % of dose. For the same compound, the “Fold change AUC0–8h” value ([1]; female Cyp3aXAV mice) was 1.16, the “Fold change SIC (% of dose)” value ([1]; female Cyp3aXAV mice) was 0.81 and the “Fold increase Cbrain” value ([1]; female Cyp3aXAV mice) was 1.57. For the same compound, the “Fold increase Cliver” value ([1]; female Cyp3aXAV mice) was 1.13, the “Fold increase ratio (brain-to-plasma)” value ([1]; female Cyp3aXAV mice) was 1.54 and the “Fold increase ratio (liver-to-plasma)” value ([1]; female Cyp3aXAV mice) was 1.32. The “SIC (% of dose)” value ([1]; female Cyp3a−/− mice) was 5.11 ± 2.83 % of dose, the “Fold change SIC (% of dose)” value ([1]; female Cyp3a−/− mice) was 2.46 and the “Fold increase Cbrain” value ([1]; female Cyp3a−/− mice) was 4.16. For the same compound, the “Fold increase Cliver” value ([1]; female Cyp3a−/− mice) was 4.11, the “Fold increase ratio (brain-to-plasma)” value ([1]; female Cyp3a−/− mice) was 0.85 and the “Fold increase ratio (liver-to-plasma)” value ([1]; female Cyp3a−/− mice) was 0.90. The “Fold change AUC0–8h” value ([1]; female Cyp3a−/− mice, 10 mg/kg) was 2.3 and 2.31, the “SIC (% of dose)” value ([1]; female wild-type mice) was 2.08 ± 1.35 % of dose and the “Fold change AUC0–8h” value ([1]; female wild-type mice) was 1.00. The “Fold change SIC (% of dose)” value ([1]; female wild-type mice) was 1.00, the “Fold increase Cbrain” value ([1]; female wild-type mice) was 1.00 and the “Fold increase Cliver” value ([1]; female wild-type mice) was 1.00. The “Fold increase ratio (brain-to-plasma)” value ([1]; female wild-type mice) was 1.00, the “Fold increase ratio (liver-to-plasma)” value ([1]; female wild-type mice) was 1.00 and the Kp at 8 h ([1]; Cyp3aXAV (>99% FVB background), mouse, brain/plasma, 10 mg/kg, female Cyp3aXAV mice, read-out: Brain-to-plasma ratio) was 0.4 ± 0.09. The concentration at 8 h ([1]; Cyp3aXAV (>99% FVB background), mouse, liver, 10 mg/kg, female Cyp3aXAV mice, read-out: Cliver) was 1380 ± 440 ng/mL, the Kp at 8 h ([1]; Cyp3a−/− (>99% FVB background), mouse, brain/plasma, 10 mg/kg, female Cyp3a−/− mice, read-out: Brain-to-plasma ratio) was 0.22 ± 0.08 and the concentration at 8 h ([1]; Cyp3a−/− (>99% FVB background), mouse, liver, 10 mg/kg, female Cyp3a−/− mice, read-out: Cliver) was 5020 ± 1920 ng/mL. For the same compound, the concentration at 8 h ([1]; FVB, mouse, brain, 10 mg/kg, female Cyp3aXAV mice, read-out: Cbrain) was 80.2 ± 35.3 ng/g, the concentration at 8 h ([1]; FVB, mouse, brain, 10 mg/kg, female Cyp3a−/− mice, read-out: Cbrain) was 213 ± 53.7 ng/g and the concentration at 8 h ([1]; FVB, mouse, brain, 10 mg/kg, female wild-type mice, read-out: Cbrain) was 51.2 ± 17.8 ng/g. For the same compound, the Kp at 8 h ([1]; FVB, mouse, liver, 10 mg/kg, female Cyp3aXAV mice, read-out: Liver-to-plasma ratio) was 7.1 ± 2.11, the Kp at 8 h ([1]; FVB, mouse, liver, 10 mg/kg, female Cyp3a−/− mice, read-out: Liver-to-plasma ratio) was 4.81 ± 0.76 and the Kp at 8 h ([1]; FVB, mouse, liver, 10 mg/kg, female wild-type mice, read-out: Liver-to-plasma ratio) was 5.36 ± 0.54. For the same compound, the half-life [1, 3] was 96 ± 12 min, the half-life [1, 4] was 150 ± 54 min and the half-life [1, 5] was 96 ± 24 min. It also gave a Cmax [1, 3] of 5560 ± 610 ng/mL, an AUC(0-t) [1, 3] of 18900 ± 3650 ng·h/mL and a Cmax [1, 4] of 8280 ± 930 ng/mL. For the same compound, the AUC(0-t) [1, 4] was 37600 ± 2830 ng·h/mL, the Cmax [1, 5] was 4800 ± 1780 ng/mL and the AUC(0-t) [1, 5] was 16300 ± 6350 ng·h/mL. For the same compound, the Kp at 8 h ([1]; wild-type (>99% FVB background), mouse, brain/plasma, 10 mg/kg, female wild-type mice, read-out: Brain-to-plasma ratio) was 0.26 ± 0.12, the concentration at 8 h ([1]; wild-type (>99% FVB background), mouse, liver, 10 mg/kg, female wild-type mice, read-out: Cliver) was 1220 ± 650 ng/mL and the Tmax ([1]; female Cyp3aXAV mice) was 0.5 (0.25–0.5) h. For the same compound, the Tmax ([1]; female Cyp3a−/− mice) was 0.5 (0.125–0.5) h, the toxicity signs ([2]; Cyp3a−/− and Oatp1a/1b−/− mice) was “no noticeable signs of toxicity” and the “time at which signs of toxicity disappeared” value ([2]; female Abcb1a/1b;Abcg2−/− mice) was “around 4 h”. The “time of toxicity signs after oral administration” value ([2]; female Abcb1a/1b;Abcg2−/− mice) was 1 to 2 h, the toxicity signs ([2]; female Abcb1a/1b;Abcg2−/− mice, hypoactivity and continuously closed eyes) was “mild toxicity signs” and the toxicity signs ([2]; female wild-type mice) was “no noticeable toxicity symptoms”.
